Source: ChEMBL document CHEMBL6114970, “Development of carbazole-based molecules for inhibition of mutant hSOD1 protein aggregation in Amyotrophic Lateral Sclerosis” (Bioorg Med Chem, 2025)
Blank lines part the entries; values can stand above or below the compound they belong to. The source made the active and inactive calls. The calls are words filed in the database; no cut-off is given here.

Experiments:
[1] = organism: Homo sapiens; experiment: Inhibition of TCEP-treated human SOD1 A4V mutant aggregation at 50 uM measured after 24 hrs by thioflavin-T fluorescence assay relative to control
[2] = organism: Homo sapiens; experiment: Inhibition of TCEP-treated human SOD1 G93A mutant aggregation at 50 uM measured after 24 hrs by thioflavin-T fluorescence assay relative to control
[3] = organism: Homo sapiens; experiment: Inhibition of TCEP-treated human SOD1 G85R mutant aggregation at 50 uM measured after 24 hrs by thioflavin-T fluorescence assay relative to control
[4] = system: N2a; experiment: Protection against MG132-induced SOD1 aggregation-associated cytotoxicity in mouse Neuro2a cells over expressing hSOD1 G85R mutant assessed as restoration of cell viability by phase contrast microscopy; format: functional, cell-based
[5] = (§1) Inhibition of TCEP-treated human SOD1 G93A mutant aggregation measured after 24 hrs by thioflavin-T fluorescence assay
[6] = organism: Homo sapiens; experiment: as §1
[7] = system: N2a; experiment: Cytotoxicity against mouse Neuro2a cells over expressing hSOD1 G85R mutant assessed as reduction in cell viability up to 10 uM measured after 48 hrs by MTT assay; format: toxicity, cell-based
[8] = system: N2a; experiment: (§2) Protection against MG132-induced SOD1 aggregation-associated apoptosis in mouse Neuro2a cells over expressing hSOD1 G85R mutant assessed as late apoptotic cells preincubated for 24 hrs followed by MG132 addition and measured after 24 hrs by Annexin V-APC/propidium iodide staining based flow cytometry (reference value: 20.93 to 23.01 %); format: functional; conditions: time 48 hrs
[9] = organism: Homo sapiens; experiment: Inhibition of TCEP-treated human SOD1 G93A mutant aggregation assessed as formation of few slender fibrils at 50 uM measured after 24 hrs by 1% uranyl acetate staining based transmission electron microscopy
[10] = system: N2a; experiment: as §2, with “necrotic” for “late apoptotic”, “2.23” for “20.93 to 23.01”; format: functional; conditions: time 48 hrs
[11] = system: N2a; experiment: Protection against MG132-induced SOD1 aggregation-associated cytotoxicity in mouse Neuro2a cells over expressing hSOD1 G85R mutant assessed as cell viability at 5 to 10 uM preincubated for 24 hrs followed by MG132 addition and measured after 24 hrs by MTT assay (reference value: 45%); format: functional; conditions: dose 5-10 µM, time 48 hrs
[12] = organism: Homo sapiens; experiment: Inhibition of TCEP-treated human SOD1 A4V mutant aggregation assessed as formation of few slender fibrils at 50 uM measured after 24 hrs by 1% uranyl acetate staining based transmission electron microscopy
[13] = organism: Homo sapiens; experiment: Inhibition of TCEP-treated human SOD1 A4V mutant aggregation assessed as size of protein at 50 uM measured after 24 hrs at 37 deg C by dynamic light scattering analysis (reference value: 154.4 nm)
[14] = (§3) Inhibition of TCEP-treated human SOD1 G85R mutant aggregation measured after 24 hrs by thioflavin-T fluorescence assay
[15] = organism: Homo sapiens; experiment: as §3
[16] = system: N2a; experiment: as §2, with “early” for “late”, “1.41” for “20.93 to 23.01”; format: functional; conditions: time 48 hrs
[17] = organism: Homo sapiens; experiment: Inhibition of TCEP-treated human SOD1 G93A mutant aggregation assessed as size of protein at 50 uM measured after 24 hrs at 37 deg C by dynamic light scattering analysis (reference value: 84.38 nm)
[18] = system: N2a; experiment: Cytotoxicity against mouse Neuro2a cells over expressing hSOD1 G85R mutant assessed as reduction in cell viability at 25 uM measured after 48 hrs by MTT assay; format: toxicity, cell-based
[19] = organism: Homo sapiens; experiment: Inhibition of TCEP-treated human SOD1 G85R mutant aggregation assessed as size of protein at 50 uM measured after 24 hrs at 37 deg C by dynamic light scattering analysis (reference value: 151.1 nm)
[20] = organism: Homo sapiens; experiment: Inhibition of TCEP-treated human SOD1 G85R mutant aggregation assessed as formation of few slender fibrils at 50 uM measured after 24 hrs by 1% uranyl acetate staining based transmission electron microscopy
[21] = system: N2a; experiment: Protection against MG132-induced SOD1 aggregation-associated apoptosis in mouse Neuro2a cells over expressing hSOD1 G85R mutant assessed as upregulation of Bcl-2 expression preincubated for 24 hrs followed by MG132 addition and measured after 24 hrs by Western blot analysis; format: functional, cell-based; conditions: time 48.0 hrs
[22] = (§4) Inhibition of TCEP-treated human SOD1 A4V mutant aggregation measured after 24 hrs by thioflavin-T fluorescence assay
[23] = organism: Homo sapiens; experiment: as §4
[24] = system: N2a; experiment: Protection against MG132-induced SOD1 aggregation-associated cytotoxicity in mouse Neuro2a cells over expressing hSOD1 G85R mutant assessed as restoration of normal morphology by phase contrast microscopy; format: functional, cell-based
[25] = system: N2a; experiment: Protection against MG132-induced SOD1 aggregation-associated apoptosis in mouse Neuro2a cells over expressing hSOD1 G85R mutant assessed as upregulation of Xiap expression preincubated for 24 hrs followed by MG132 addition and measured after 24 hrs by Western blot analysis; format: functional, cell-based; conditions: time 48.0 hrs
[26] = system: N2a; experiment: Protection against MG132-induced SOD1 aggregation-associated cytotoxicity in mouse Neuro2a cells over expressing hSOD1 G85R mutant assessed as increase in cell viability at 1 uM preincubated for 24 hrs followed by MG132 addition and measured after 24 hrs by MTT assay; format: functional, cell-based; conditions: time 48.0 hrs
[27] = system: N2a; experiment: Protection against MG132-induced SOD1 aggregation-associated oxidative stress in mouse Neuro2a cells over expressing hSOD1 G85R mutant assessed as reduction in ROS level at 10 uM preincubated for 24 hrs followed by MG132 addition and measured after 24 hrs by H2DCFDA dye based flow cytometry; format: functional, cell-based; conditions: time 48.0 hrs

inhibition [1]: 62.8%
inhibition [2]: 44.5%
inhibition [3]: 70%
SMILES: CCn1c2ccccc2c2cc(NC(=O)NNC(=O)NCCc3ccccc3)ccc21

inhibition [1]: 54.2%
inhibition [2]: 69.8%
inhibition [3]: 56.4%
SMILES: CCn1c2ccccc2c2cc(NC(=O)NNC(=S)NCc3ccccc3)ccc21

inhibition [1]: 46.9%
inhibition [2]: 63.4%
inhibition [3]: 65.9%
SMILES: CCn1c2ccccc2c2cc(NC(=O)NNC(=O)Nc3ccccc3)ccc21

inhibition [1]: 59.3%
inhibition [2]: 33.9%
inhibition [3]: 63.3%
SMILES: CCn1c2ccccc2c2cc(NC(=O)NNC(=O)Nc3ccc(Cl)cc3)ccc21

inhibition [1]: 60%
inhibition [2]: 72.6%
inhibition [3]: 64.4%
SMILES: CCn1c2ccccc2c2cc(NC(=O)NNC(=S)Nc3ccc([N+](=O)[O-])cc3)ccc21

inhibition [1]: 58.8%
inhibition [2]: 72.5%
inhibition [3]: 70.6%
SMILES: CCn1c2ccccc2c2cc(NC(=O)NNC(=S)Nc3ccc(OC)cc3)ccc21

inhibition [1]: 68.5%
inhibition [2]: 65.4%
inhibition [3]: 66.1%
SMILES: CCn1c2ccccc2c2cc(NC(=O)NNC(=S)NCCc3ccccc3)ccc21

IC50 [5]: 26 µM
inhibition [6]: Dose-dependent-effect
inhibition [1]: 71.3%
Activity [13]: 44.6 nm
IC50 [14]: 31.3 µM
inhibition [15]: Dose-dependent-effect
Activity [17]: 25.2 nm
Activity [19]: 36.3 nm
IC50 [22]: 32.4 µM
inhibition [23]: Dose-dependent-effect
inhibition [2]: 88.3%
inhibition [3]: 74.8%
SMILES: CCn1c2ccccc2c2cc(NC(=O)NNC(=S)Nc3ccccc3)ccc21
Activity [4]: Active
Activity [7]: Non-toxic
Activity [8]: 8.26%
inhibition [9]: Active; Displayed Better Reduction In Aggregate Formation Than Curcumin
Activity [10]: 2.64%
Activity [11]: 60%
inhibition [12]: Active; Displayed Better Reduction In Aggregate Formation Than Curcumin
Activity [16]: 1.04%
Activity [18]: Toxic
inhibition [20]: Active; Displayed Better Reduction In Aggregate Formation Than Curcumin
Activity [21]: Active
Activity [24]: Active
Activity [25]: Active
Activity [26]: inactive
Activity [27]: Active; Significant Effect Observed

inhibition [1]: 55.3%
inhibition [2]: 48.2%
inhibition [3]: 43.1%
SMILES: CCn1c2ccccc2c2cc(NC(=O)NNC(=O)Nc3ccc([N+](=O)[O-])cc3)ccc21

IC50 [5]: 32.3 µM
inhibition [6]: Dose-dependent-effect
inhibition [9]: Active
inhibition [12]: Active
inhibition [1]: 58.7%
Activity [13]: 52.1 nm
IC50 [14]: 64.1 µM
inhibition [15]: Dose-dependent-effect
Activity [17]: 31.7 nm
Activity [19]: 40.2 nm
inhibition [20]: Active
IC50 [22]: 40.9 µM
inhibition [23]: Dose-dependent-effect
inhibition [3]: 42.8%
SMILES: COc1cc(/C=C/C(=O)CC(=O)/C=C/c2ccc(O)c(OC)c2)ccc1O [CURCUMIN]
Activity [4]: Active
Activity [7]: Non-toxic
Activity [8]: 8.19%
Activity [10]: 2.58%
Activity [11]: 60%
Activity [16]: 0.97%
Activity [18]: Toxic
Activity [21]: Active
Activity [24]: Active
Activity [25]: Active
Activity [26]: inactive
Activity [27]: Active; Significant Effect Observed

inhibition [1]: 61.1%
inhibition [2]: 76.4%
inhibition [3]: 58.3%
SMILES: CCn1c2ccccc2c2cc(NC(=O)NNC(=S)Nc3ccc(Cl)cc3)ccc21

inhibition [1]: 31.9%
inhibition [2]: 25.1%
inhibition [3]: 70.7%
SMILES: CCn1c2ccccc2c2cc(NC(=O)NNC(=O)NCc3ccccc3)ccc21

inhibition [1]: 69.7%
inhibition [2]: 72.3%
inhibition [3]: 63.2%
SMILES: CCn1c2ccccc2c2cc(NC(=O)NNC(=S)Nc3ccc(OC(F)(F)F)cc3)ccc21

inhibition [1]: 40.6%
inhibition [2]: 61.8%
inhibition [3]: 38.2%
SMILES: CCn1c2ccccc2c2cc(NC(=O)NNC(=O)Nc3ccc(OC)cc3)ccc21

IC50 [5]: 29.1 µM
inhibition [6]: Dose-dependent-effect
inhibition [1]: 76.2%
Activity [13]: 27.7 nm
IC50 [14]: 23.4 µM
inhibition [15]: Dose-dependent-effect
Activity [17]: 21.7 nm
Activity [19]: 26.4 nm
IC50 [22]: 28.1 µM
inhibition [23]: Dose-dependent-effect
inhibition [2]: 80.7%
inhibition [3]: 76.8%
SMILES: CCn1c2ccccc2c2cc(NC(=O)NNC(=S)Nc3ccc(F)cc3)ccc21
Activity [4]: Active
Activity [7]: Non-toxic
Activity [8]: 5.52%
inhibition [9]: Active; Displayed Better Reduction In Aggregate Formation Than Curcumin
Activity [10]: 2.13%
Activity [11]: 60%
inhibition [12]: Active; Displayed Better Reduction In Aggregate Formation Than Curcumin
Activity [16]: 1.19%
Activity [18]: Toxic
inhibition [20]: Active; Displayed Better Reduction In Aggregate Formation Than Curcumin
Activity [21]: Active
Activity [24]: Active
Activity [25]: Active
Activity [26]: inactive
Activity [27]: Active; Showed Better Reduction Compared To Curcumin

inhibition [1]: 46.1%
inhibition [2]: 71.9%
inhibition [3]: 43.4%
SMILES: CCn1c2ccccc2c2cc(NC(=O)NNC(=O)Nc3ccc(F)cc3)ccc21

inhibition [1]: 9.88%
inhibition [2]: inactive
inhibition [3]: inactive
SMILES: Nc1nc2ccc(OC(F)(F)F)cc2s1

inhibition [1]: 47.1%
inhibition [2]: 73.8%
inhibition [3]: 63.8%
SMILES: CCn1c2ccccc2c2cc(NC(=O)NNC(=O)Nc3ccc(OC(F)(F)F)cc3)ccc21
